In PubChem BioAssay (NCI):
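Grown in 96-well plates, cells were treated for 48 hours with each compound at five concentrations. Insufficient inhibition: endpoint recorded as highest concentration tested. At the TGI there is no net growth.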

Experiments:
Test in all cases: growth of human tumour cells (NCI), 48 h
A498 renal = tested on: A498 renal
CCRF-CEM leukemia = tested on: CCRF-CEM leukemia
EKVX NSCLC = tested on: EKVX NSCLC
HCT-116 colon = tested on: HCT-116 colon
OVCAR-4 ovarian = tested on: OVCAR-4 ovarian
SN12C renal = tested on: SN12C renal
UACC-62 melanoma = tested on: UACC-62 melanoma
MDA-MB-231 breast = tested on: MDA-MB-231 breast
T-47D breast = tested on: T-47D breast
MDA-MB-435 = tested on: MDA-MB-435

Row | SMILES | TGI (A498 renal) | TGI (CCRF-CEM leukemia) | TGI (EKVX NSCLC) | TGI (HCT-116 colon) | TGI (OVCAR-4 ovarian) | TGI (SN12C renal) | TGI (UACC-62 melanoma) | TGI (MDA-MB-231 breast) | TGI (T-47D breast) | TGI (MDA-MB-435)
1 | CS(=O)(=O)OCCCOS(C)(=O)=O | > 100 µM | > 100 µM | > 100 µM | > 100 µM | > 100 µM | > 100 µM | > 100 µM | – | – | –
2 | COc1ccccc1NC(=O)O/N=C(/Cl)C(C)C | 29.9 µM | 3.57 µM | 29.6 µM | 29.3 µM | – | 31.7 µM | 37.4 µM | 18.3 µM | 59.2 µM | –
3 | COc1cc(C2c3cc4c(cc3[C@@H](Nc3cccc([N+](=O)[O-])c3)C3COC(=O)[C@H]23)OCO4)cc(OC)c1O (some centres not stated) | 4.47 µM | – | > 38.2 µM | 21.6 µM | > 100 µM | > 22.2 µM | 15.7 µM | – | – | –
4 | COc1ccc(Oc2nc(C#CC(C)(C)O)nc(Oc3ccc(OC)cc3)n2)cc1 | 31.6 µM | 4.36 µM | 30.7 µM | > 100 µM | – | 28.1 µM | 25 µM | 9.93 µM | > 100 µM | 17 µM
5 | CC(Cc1ccccc1)NC1=NCCO1 (configuration not stated) | 85.5 µM | – | > 100 µM | 32.4 µM | > 100 µM | 53.3 µM | > 100 µM | 30.1 µM | > 100 µM | –
6 | O=C(OCc1ccccc1)N1CCN(C(=O)OCc2ccccc2)CCN(C(=O)OCc2ccccc2)CCN(C(=O)OCc2ccccc2)CCN(C(=O)OCc2ccccc2)CC1 | > 100 µM | – | > 100 µM | > 100 µM | > 100 µM | > 100 µM | > 100 µM | > 100 µM | > 100 µM | > 100 µM
7 | Cc1nc2ccccc2n1Cc1nnc(N)o1 | > 100 µM | > 100 µM | > 100 µM | > 100 µM | – | > 100 µM | > 100 µM | > 100 µM | > 100 µM | 21.3 µM
8 | c1ccc2c(c1)CC1COc3ccccc3C1O2 (configuration not stated) | > 100 µM | > 100 µM | > 100 µM | > 100 µM | – | > 100 µM | > 100 µM | > 100 µM | > 100 µM | > 100 µM
9 | CC(=O)O[C@H]1[C@@H](OC(C)=O)C(C)(C)/C=C/[C@H](C)C(=O)[C@@]2(OC(C)=O)C[C@@](C)(OC(C)=O)[C@H](OC(C)=O)[C@@H]2[C@H]2OC(=O)CC[C@@]2(OC(=O)c2ccccc2)[C@@H]1OCC(C)C | – | > 100 µM | > 100 µM | 65.2 µM | > 100 µM | > 100 µM | > 100 µM | > 100 µM | > 100 µM | > 100 µM
10 | O=C1ON=C2C3CC4CC12CC1(C3)C(=O)ON=C41 | > 100 µM | > 100 µM | > 100 µM | > 100 µM | > 100 µM | > 100 µM | > 100 µM | > 100 µM | – | > 100 µM
11 | COc1ccc(/C=N/NC(=O)c2cnc3[nH]c(=O)n(C)c(=O)c3c2)cc1 | – | > 100 µM | > 100 µM | > 100 µM | > 100 µM | > 100 µM | > 100 µM | 86.8 µM | > 100 µM | > 100 µM
